These results are taken from US20250340574A1, “MODULATORS OF CYSTIC FIBROSIS TRANSMEMBRANE CONDUCTANCE REGULATOR” (Vertex Pharmaceuticals Incorporated, priority 2022, published 2025).

Read-outs that look alike come from different tables or passages of the source.

The target in the test is T1, CFTR (F508del/MF-HBE cells) (Homo sapiens, UniProt P13569, DEL508-508).
T1 construct: human bronchial epithelial (HBE) cells derived from CF subjects heterozygous for F508del and a minimal function CFTR mutation (F508del/MF-HBE); endogenous in cells; host or cells: Primary human bronchial epithelial cells from CF subjects (F508del/MF genotype), differentiated at an air-liquid interface
T1 sequence (P13569 with tags, fused parts or gaps DEL508-508): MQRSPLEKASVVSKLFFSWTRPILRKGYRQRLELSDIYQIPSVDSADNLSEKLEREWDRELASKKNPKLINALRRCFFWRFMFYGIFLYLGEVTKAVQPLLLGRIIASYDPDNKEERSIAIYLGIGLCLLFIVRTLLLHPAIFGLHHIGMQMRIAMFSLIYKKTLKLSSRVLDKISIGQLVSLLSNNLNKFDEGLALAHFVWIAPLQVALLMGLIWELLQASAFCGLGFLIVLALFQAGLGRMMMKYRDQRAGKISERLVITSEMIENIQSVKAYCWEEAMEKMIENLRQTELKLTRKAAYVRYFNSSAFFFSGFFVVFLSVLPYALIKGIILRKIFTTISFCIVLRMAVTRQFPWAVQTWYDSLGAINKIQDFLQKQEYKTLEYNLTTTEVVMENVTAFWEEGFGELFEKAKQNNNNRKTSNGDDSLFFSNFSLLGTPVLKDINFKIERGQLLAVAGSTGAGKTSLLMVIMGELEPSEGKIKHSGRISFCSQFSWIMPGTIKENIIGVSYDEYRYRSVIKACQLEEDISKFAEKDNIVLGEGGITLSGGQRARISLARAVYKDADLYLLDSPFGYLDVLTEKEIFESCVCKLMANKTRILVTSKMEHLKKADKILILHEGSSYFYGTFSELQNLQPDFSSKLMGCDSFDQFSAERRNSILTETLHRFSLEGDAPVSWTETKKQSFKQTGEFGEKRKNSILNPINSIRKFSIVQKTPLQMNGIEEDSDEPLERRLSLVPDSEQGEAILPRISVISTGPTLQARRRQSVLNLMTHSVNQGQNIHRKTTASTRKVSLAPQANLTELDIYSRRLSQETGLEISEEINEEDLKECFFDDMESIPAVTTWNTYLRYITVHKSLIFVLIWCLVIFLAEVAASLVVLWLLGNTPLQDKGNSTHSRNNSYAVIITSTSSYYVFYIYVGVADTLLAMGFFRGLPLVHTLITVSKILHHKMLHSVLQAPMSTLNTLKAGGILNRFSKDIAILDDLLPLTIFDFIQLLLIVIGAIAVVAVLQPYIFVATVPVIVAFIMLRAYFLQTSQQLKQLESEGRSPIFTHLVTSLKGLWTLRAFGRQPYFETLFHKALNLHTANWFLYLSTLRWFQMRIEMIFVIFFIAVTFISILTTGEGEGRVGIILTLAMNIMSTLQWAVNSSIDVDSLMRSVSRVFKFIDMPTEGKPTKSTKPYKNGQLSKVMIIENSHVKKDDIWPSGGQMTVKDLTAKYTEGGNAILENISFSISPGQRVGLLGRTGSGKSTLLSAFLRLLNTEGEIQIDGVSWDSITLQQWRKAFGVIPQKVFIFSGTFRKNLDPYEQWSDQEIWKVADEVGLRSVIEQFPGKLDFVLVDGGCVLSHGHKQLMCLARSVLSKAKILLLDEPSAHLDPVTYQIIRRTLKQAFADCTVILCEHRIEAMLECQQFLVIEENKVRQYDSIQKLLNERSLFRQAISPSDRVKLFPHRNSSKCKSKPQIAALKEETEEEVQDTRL
As to the kind of experiment: Ussing chamber assay of CFTR-mediated short-circuit currents, Assay C (0.026 μM to 25 μM, 6 concentrations). Conditions: with 33 nM potentiator and 18 μM Tezacaftor, 20% human serum; for Emax: read-out: C Max activity (%). The test is classed as cell-based. The procedure: Ussing chamber experiments were performed using human bronchial epithelial (HBE) cells derived from CF subjects heterozygous for F508del and a minimal function CFTR mutation (F508del/MF-HBE) and cultured as previously described (Neuberger T, Burton B, Clark H, Van Goor F Methods Mol Biol 2011:741:39-54). After four days the apical media was removed, and the cells were grown at an air liquid interface for >14 days prior to use.
To isolate the CFTR-mediated short-circuit (ISC) current, F508del/MF-HBE grown on Costar® Snapwell™ cell culture inserts were mounted in an Ussing chamber and the transepithelial ISC was measured under voltage-clamp recording conditions (Vhold=0 mV) at 37° C. The basolateral solution contained (in mM) 145 NaCl, 0.83 K2HPO4, 3.3 KH2PO4, 1.2 MgCl2, 1.2 CaCl2, 10 Glucose, 10 HEPES (pH adjusted to 7.4 with NaOH) and the apical solution contained (in mM) 145 NaGluconate, 1.2 MgCl2, 1.2 CaCl2, 10 glucose, 10 HEPES (pH adjusted to 7.4 with NaOH) and 30 μM amiloride to block the epithelial sodium channel. Forskolin (20 μM) was added to the apical surface to activate CFTR, followed by apical addition of a CFTR inhibitor cocktail consisting of BPO, GlyH-101, and CFTR inhibitor 172 (each at 20 μM final assay concentration) to specifically isolate CFTR currents. The CFTR-mediated ISC (μA/cm^2) for each condition was determined from the peak forskolin response to the steady-state current following inhibition.
The activity of the CFTR corrector compounds on the CFTR-mediated ISC was determined in Ussing chamber studies as described above. The F508del/MF-HBE cell cultures were either incubated with the corrector compounds at a range of concentrations in combination with 33 nM (6R,12R)-17-amino-12-methyl-6,15-bis(trifluoromethyl)-13,19-dioxa-3,4,18-triazatricyclo[12.3.1.12,5]nonadeca-1(18),2,4,14,16-pentaen-6-ol and 18 μM Tezacaftor or were incubated with the corrector compounds at a single fixed concentration of 1 μM in combination with 44 nM (6R,12R)-17-amino-12-methyl-6,15-bis(trifluoromethyl)-13,19-dioxa-3,4,18-triazatricyclo[12.3.1.12,5]nonadeca-1(18),2,4,14,16-pentaen-6-ol and 18 μM Tezacaftor for 18-24 hours at 37° C. and in the presence of 20% human serum. The concentration of corrector compounds with 44 nM or 33 nM (6R,12R)-17-amino-12-methyl-6,15-bis(trifluoromethyl)-13,19-dioxa-3,4,18-triazatricyclo[12.3.1.12,5]nonadeca-1(18),2,4,14,16-pentaen-6-ol and 18 μM Tezacaftor during the 18-24 hours incubations was kept constant throughout the Ussing chamber measurement of the CFTR-mediated ISC to ensure compounds were present throughout the entire experiment. The efficacy and potency of the putative F508del correctors was compared to that of the known Vertex corrector, (14S)-8-[3-(2-{Dispiro[2.0.2.1]heptan-7-yl}ethoxy)-1H-pyrazol-1-yl]-12,12-dimethyl-2λ^6-thia-3,9,11,18,23-pentaazatetracyclo[17.3.1.111,14.05,10]tetracosa-1(22),5,7,9,19(23),20-hexaene-2,2,4-trione, in combination with 18 μM Tezacaftor and 1 μM Ivacaftor.
• Assay A: 0.1 μM to 25 μM, 6 concentrations • Assay B: 0.00001 μM to 25 μM, 12 concentrations • Assay C: 0.026 μM to 25 μM, 6 concentrations • Assay D: Activity at single concentration of 1 μM

For orientation: EC50 means the concentration at which the effect is half-maximal. Take `Cc1cccc(C)c1-c1cc2nc(n1)NS(=O)(=O)c1cccc(c1)C(=O)N(Cc1ncc3oc(C(C)(C)C)cc3n1)[C@H](CC13CC(C1)C3)CO2` [Compound I-251]: the EC50 is 1 to 3 µM. Also, the Emax (18-24 hours) is over 60%. On to `Cc1cccc(CC2CCCCC2)c1-c1nc2nc(c1C)OC[C@@H](CC(C)(C)C)N(Cc1cnc3cc(C(C)C)n(C)c3n1)C(=O)c1cccc(c1)S(=O)(=O)N2` (atropisomer, axis not shown) [Compound I-178], for which the EC50 is under 1 µM. Moreover, for the setting “18-24 hours”, the Emax is over 60%. Regarding `Cc1cccc(C)c1-c1cc2nc(n1)NS(=O)(=O)c1cccc(c1)C(=O)N(Cc1cnc3oc(C(C)(C)C)cc3n1)[C@H](C[C@@H]1CCCCO1)CO2` [IV-85], the EC50 lay in the range of 1 to 3 µM and the Emax was over 60%.

Take `Cc1cccc(CC(C)C)c1-c1nc2nc(c1C)OC[C@@H](COC(C)C)N(Cc1cnc3cc(C(C)(C)C(F)(F)F)n(C)c3n1)C(=O)c1cccc(c1)S(=O)(=O)N2` [IV-101]: the EC50 was under 1 µM and the Emax was over 60%. Regarding `CCc1cccc(CC)c1-c1cc2nc(n1)NS(=O)(=O)c1cccc(c1)C(=O)N(Cc1cnc3cc(C4(C)CC4)n(C)c3n1)[C@H](CC(C)(C)C)CO2` [IV-71], the EC50 was 1 to 3 µM and the Emax is over 60%. As for `Cc1cccc(C)c1-c1cc2nc(n1)NS(=O)(=O)c1cccc(c1)C(=O)N(Cc1cnc3oc(C4(C)CC4)cc3n1)[C@H](C[C@@H]1CCCCO1)CO2` [IV-87], the concentration for a half-maximal effect (EC50) was in the range of 3 to 30 µM and the Emax is over 60%. As for `Cc1cccc(CC(C)C)c1-c1nc2nc(c1C)OC[C@@H](CC(C)(C)C)N(Cc1cnc3oc(C4(C)CC4)cc3n1)C(=O)c1cccc(c1)S(=O)(=O)N2` (atropisomer, axis not shown) [Compound I-257], the EC50 lay within 1 to 3 µM. Further, the Emax (18-24 hours) is over 60%. As for `Cc1cccc(OC(C)C)c1-c1nc2nc(c1C)OC[C@@H](CC(C)(C)C)N(Cc1cnc3oc(C(C)(C)C)cc3n1)C(=O)c1cccc(c1)S(=O)(=O)N2` (atropisomer, axis not shown) [Compound I-249], the EC50 lay within 1 to 3 µM. For the same compound, the Emax (18-24 hours) is over 60%.

With `Cc1cccc(CC(C)C)c1-c1nc2nc(c1C)OC[C@@H](COC(C)C)N(Cc1cnc3oc(C(C)(C)C)cc3n1)C(=O)c1cccc(c1)S(=O)(=O)N2` (atropisomer, axis not shown) [IV-43], the EC50 was 1 to 3 µM and the Emax was over 60%. Take `Cc1cccc(C)c1-c1cc2nc(n1)NS(=O)(=O)c1cccc(c1)C(=O)N(Cc1cnc3oc(C4(C)CC4)cc3n1)[C@H](C[C@@H]1CCCO1)CO2` [IV-84]: the EC50 lay in the range of 1 to 3 µM and the Emax was over 60%.

For `Cc1cccc(C(C)C)c1-c1nc2nc(c1C)OC[C@@H](CC(C)(C)C)N(Cc1cnc3cc(C(C)C)n(C)c3n1)C(=O)c1cccc(c1)S(=O)(=O)N2` (atropisomer, axis not shown) [Compound I-179], the 50% effective concentration (EC50) fell in the range of 3 to 30 µM. In addition, the Emax (18-24 hours) was over 60%. For the compound `Cc1cccc(C)c1-c1cc2nc(n1)NS(=O)(=O)c1cccc(c1)C(=O)N(Cc1nc3cc(C4CC4)oc3cc1F)[C@H](CC13CC(C1)C3)CO2` [Compound I-208], the EC50 fell in the range of 1 to 3 µM. In addition, the Emax (18-24 hours) is over 60%. For `Cc1cccc(C)c1-c1cc2nc(n1)NS(=O)(=O)c1cccc(c1)C(=O)N(Cc1cnc3cc(C(C)(C)C)n(C)c3n1)[C@@H](C(C1CCC1)C1CCC1)CO2` [IV-50], the EC50 was under 1 µM and the Emax is over 60%. The matching figures for `CCc1cccc(CC)c1-c1cc2nc(n1)NS(=O)(=O)c1cccc(c1)C(=O)N(Cc1cnc3oc(C(C)(C)C)cc3n1)[C@H](CC(C)(C)C)CO2` [IV-67]: 3 to 30 µM and over 60%. As for `Cc1cccc(CC(C)C)c1-c1nc2nc(c1C)OC[C@@H]([C@@H]1CCCO1)N(Cc1cnc3cc(C(C)(C)C)n(C)c3n1)C(=O)c1cccc(c1)S(=O)(=O)N2` (atropisomer, axis not shown) [IV-95], the EC50 was under 1 µM and the Emax was over 60%. As for `Cc1cccc(C)c1-c1cc2nc(n1)NS(=O)(=O)c1cccc(c1)C(=O)N(Cc1cnc3cc(C(C)(C)C)n(C)c3n1)[C@H](C1CCCO1)CO2` (single isomer, unassigned) [IV-97], the concentration giving a half-maximal response (EC50) is under 1 µM. With `COCc1c(C(C)(C)C)n(C)c2nc(CN3C(=O)c4cccc(c4)S(=O)(=O)Nc4nc(cc(-c5c(C)cccc5C)n4)OC[C@H]3CC34CC(C3)C4)cnc12` [IV-89, (11R)-11-(1-bicyclo[1.1.1]pentanylmethyl)-12-[[6-tert-butyl-7-(methoxymethyl)-5-methyl-pyrrolo[2,3-b]pyrazin-3-yl]methyl]-6-(2,6-dimethylphenyl)-2,2-dioxo-9-oxa-2λ^6-thia-3,5,12,19-tetrazatricyclo[12.3.1.14,8]nonadeca-1(18),4(19),5,7,14,16-hexaen-13-one], the EC50 is under 1 µM and the Emax is over 60%. `CCc1cccc(CC)c1-c1nc2nc(c1C)OC[C@@H](CC(C)(C)C)N(Cc1cnc3cc(C4(C)CC4)n(C)c3n1)C(=O)c1cccc(c1)S(=O)(=O)N2` [IV-90]: the EC50 lay in the range of 1 to 3 µM and the Emax is over 60%.

In the case of `Cc1cccc(C)c1-c1cc2nc(n1)NS(=O)(=O)c1cccc(c1)C(=O)N(Cc1cnc3oc(C4(C)CC4)cc3n1)[C@H](C[C@H]1CCCCO1)CO2` [IV-88], the EC50 fell in the range of 3 to 30 µM and the Emax was over 60%. With `Cc1cccc(C)c1-c1cc2nc(n1)NS(=O)(=O)c1cccc(c1)C(=O)N(Cc1cnc3cc(C4(C(F)(F)F)CC4)n(C)c3n1)[C@H](C[C@@H]1CCCO1)CO2` [IV-103], the EC50 was in the range of 1 to 3 µM and the Emax was over 60%. For the compound `Cc1cccc(C)c1-c1nc2nc(c1C)OC[C@@H](C[C@@H]1CCCO1)N(Cc1cnc3cc(C4(C(F)(F)F)CC4)n(C)c3n1)C(=O)c1cccc(c1)S(=O)(=O)N2` [IV-105], the EC50 is under 1 µM and the Emax is over 60%. `Cc1cccc(C)c1-c1cc2nc(n1)NS(=O)(=O)c1cccc(c1)C(=O)N(Cc1ncc3oc(C4CC4)cc3n1)[C@H](CC1(C)CC1)CO2` [Compound I-199]: the EC50 lay in the range of 3 to 30 µM. Besides, the Emax (18-24 hours) is over 60%. In the case of `Cc1cccc(C)c1-c1nc2nc(c1C)OC[C@@H](C[C@H]1CCCO1)N(Cc1cnc3cc(C4(C(F)(F)F)CC4)n(C)c3n1)C(=O)c1cccc(c1)S(=O)(=O)N2` [IV-106], the EC50 was under 1 µM and the Emax is over 60%. Turning to `Cc1cccc(CC(C)C)c1-c1nc2nc(c1C)OC[C@@H](CC(C)(C)C)N(Cc1ncc3cc(C4CC4)n(C)c3n1)C(=O)c1cccc(c1)S(=O)(=O)N2` (atropisomer, axis not shown) [IV-25], the EC50 was 1 to 3 µM and the Emax was over 60%. Consider `COCCc1c(C(C)(C)C)n(C)c2nc(CN3C(=O)c4cccc(c4)S(=O)(=O)Nc4nc(cc(-c5c(C)cccc5C)n4)OC[C@H]3CC34CC(C3)C4)cnc12` [IV-82, (11R)-11-(1-bicyclo[1.1.1]pentanylmethyl)-12-[[6-tert-butyl-7-(2-methoxyethyl)-5-methyl-pyrrolo[2,3-b]pyrazin-3-yl]methyl]-6-(2,6-dimethylphenyl)-2,2-dioxo-9-oxa-2λ^6-thia-3,5,12,19-tetrazatricyclo[12.3.1.14,8]nonadeca-1(18),4(19),5,7,14,16-hexaen-13-one], for which the EC50 is under 1 µM and the Emax is over 60%.
